{"source": "patent US20130210852A1", "about": "“METHODS FOR TREATING INFECTION” (priority 2010, published 2013)", "key": {"HEp-2 cells": {"test_system": "HEp-2 cells", "experiment": "Cytokine arrays of HEp-2 supernatants (Panomics)", "details": "antibiotic 64 μg/ml, 24 h"}, "[1]": {"test_system": "EAEC adherence with dialyzed conditioned medium of HEp-2 cells", "experiment": "Effect of dialyzed HEp-2 supernatants on EAEC adherence", "assay_type": "cell-based, human", "design": "dose or concentration left out as unconfirmed", "details": "HEp-2 treated 24 h, supernatant dialyzed; chambers with or without HEp-2 cells, 3 h", "protocol": "HEp-2 cells were cultured in T-175 flasks as described above. […] After 24 h, the medium was collected, loaded into regenerated cellulose dialysis tubing (cutoff, 6 to 8 kDa; Spectra/Por, Rancho Domiguez, Calif.), and dialyzed against 4 liters of PBS changed four times. Each dialysis step lasted at least 6 h and was carried out at 4° C. Dialyzed supernatants were either used immediately in adherence assays or stored at −20° C. until use.\nThe effect of supernatants on EAEC adherence was determined by mixing EAEC with the dialyzed media from the different antibiotic (or control) treatment groups and adding the bacteria to HEp-2 cells cultured in chambered slides or to chambered slides with no HEp-2 cells. Adherence was visualized microscopically as described above."}, "C difficile": {"test_system": "C difficile", "experiment": "Susceptibility testing of C difficile isolates (rifaximin agar dilution, rifampin E strips)"}, "[2]": {"test_system": "EAEC strain O42 adherence to HEp-2 cells", "experiment": "HEp-2 cell attachment assay (microscopy after Wright-Giemsa staining)", "assay_type": "cell-based, human"}}, "data": [{"smiles": "CO[C@H]1/C=C/O[C@@]2(C)Oc3c(C)c(O)c4c(O)c(c(/C=N/N5CCN(C)CC5)c(O)c4c3C2=O)NC(=O)/C(C)=C\\C=C\\[C@H](C)[C@H](O)[C@@H](C)[C@@H](O)[C@@H](C)[C@H](OC(C)=O)[C@@H]1C", "note": "[Rifampin]", "values": [{"measurement": "cytokine profile of HEp-2 supernatants", "setting": "HEp-2 cells", "result": "had the same profile, except that MIP5 was not detected"}, {"measurement": "EAEC adherence after mixing with dialyzed supernatants of antibiotic-treated HEp-2 cells", "setting": "[1]", "result": "adhered to chambers independently of the presence of HEp-2 cells"}, {"measurement": "MIC50 against C difficile", "setting": "C difficile; 359 isolates", "result": "<2", "unit": "ng/mL"}, {"measurement": "MIC90 against C difficile", "setting": "C difficile; 359 isolates", "result": 4000, "unit": "ng/mL"}, {"measurement": "MIC50 against C difficile", "setting": "C difficile; 359 isolates, listed as rifampin", "result": "< 2", "unit": "ng/mL"}, {"measurement": "Isolates resistant to rifampin (n = 28), (%)", "setting": "C difficile; genotype A +, B +, BT +, tcdC-del +", "result": "(7) %"}, {"measurement": "Isolates resistant to rifampin (n = 28), (%)", "setting": "C difficile; genotype A +, B +, BT +, tcdC-del −", "result": "(14) %"}, {"measurement": "Isolates resistant to rifampin (n = 28), (%)", "setting": "C difficile; genotype A +, B +, BT −, tcdC-del +", "result": "(18) %"}, {"measurement": "Isolates resistant to rifampin (n = 28), (%)", "setting": "C difficile; genotype A +, B +, BT −, tcdC-del −", "result": "(46) %"}, {"measurement": "Isolates resistant to rifampin (n = 28), (%)", "setting": "C difficile; genotype A −, B −, BT −, tcdC-del −", "result": "(14) %"}, {"measurement": "EAEC O42 adherence to HEp-2 cells (microscopy)", "setting": "[2]", "result": "adhered in the traditional stacked-brick formation"}]}]}
